Experimental data taken from patent US12018021B2 (UCB Biopharma SRL, priority 2018, dated 2024).

target: IgE-Tb / FcεRIα-Y131A-AF488 (Homo sapiens, UniProt P01854); assay: IgE-Tb / FcεRIα-Y131A-AF488 FRET assay (protocol for examples 1 to 233); format: binding; conditions: examples 1 to 233: 5 nM IgE-Tb, 25 nM FcεRIα-Y131A-AF488, incubated 2 hours at room temperature; read-out: Y131A FRET IC50 range
How it was run: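 TR-FRET displacement with 5 nM IgE-Tb and 25 nM FcεRIα-Y131A-AF488 (final), 10-point 3-fold compound dilutions from typically 10 μM top, 2% DMSO, 2 h at room temperature. Excitation 330 nm, 520/495 nm emission ratio; MIN set with 200 nM unlabelled FcεRIα. IC50 from four-parameter logistic fit of percent inhibition.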

Chain of IgE-Tb / FcεRIα-Y131A-AF488 (P01854 1-427 limits assumed, stated change not applied): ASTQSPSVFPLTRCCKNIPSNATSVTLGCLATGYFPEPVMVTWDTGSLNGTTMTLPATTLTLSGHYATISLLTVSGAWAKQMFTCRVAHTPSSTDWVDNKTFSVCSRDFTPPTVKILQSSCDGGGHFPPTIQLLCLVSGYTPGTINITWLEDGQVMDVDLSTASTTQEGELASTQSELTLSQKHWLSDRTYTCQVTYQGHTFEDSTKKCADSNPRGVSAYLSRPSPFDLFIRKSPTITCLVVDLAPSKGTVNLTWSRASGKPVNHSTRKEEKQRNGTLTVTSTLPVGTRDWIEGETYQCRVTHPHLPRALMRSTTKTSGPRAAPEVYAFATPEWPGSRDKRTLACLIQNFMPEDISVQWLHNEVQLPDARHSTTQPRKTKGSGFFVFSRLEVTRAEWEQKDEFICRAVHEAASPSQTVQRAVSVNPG

Row | SMILES | IC50 [nM]
1 | O=C(NCC1CC1)c1c(NC(=O)C2CC2)sc2c1CC(Nc1ncccn1)CC2 (stereo not shown) [Example 191, 2-(Cyclopropanecarbonylamino)-N-(cyclopropylmethyl)-5-(pyrimidin-2-ylamino)-4,5,6,7-tetrahydrobenzothiophene-3-carboxamide] | < 1000
2 | CCNC(=O)C1CCCc2c1sc(NC(=O)C1CC1)c2C(=O)NCC1CC1 (stereo not shown) [Example 98, 2-(Cyclopropanecarbonylamino)-N3-(cyclopropylmethyl)-N7-ethyl-4,5,6,7-tetrahydrobenzothiophene-3,7-dicarboxamide] | 10000 to 50000
3 | CCNc1c(NC2CCc3sc(NC(=O)C4CC4)c(S(=O)(=O)NCC4CC4)c3C2)c(=O)c1=O (stereo not shown) [Example 37, N-[3-(Cyclopropylmethylsulfamoyl)-5-[[2-(ethylamino)-3,4-dioxo-cyclobuten-1-yl]amino]-4,5,6,7-tetrahydrobenzothiophen-2-yl]cyclopropanecarboxamide] | < 1000
4 | Cc1coc(C2CCc3sc(NC(=O)C4CC4)c(C(=O)NCC4CC4)c3C2)n1 (stereo not shown) [Example 68, 2-(Cyclopropanecarbonylamino)-N-(cyclopropylmethyl)-5-(4-methyloxazol-2-yl)-4,5,6,7-tetrahydrobenzothiophene-3-carboxamide] | 1000 to 10000
5 | CC(O)CNS(=O)(=O)c1c(NC(=O)C2CC2)sc2c1CCCC2 (stereo not shown) [Example 19, N-[3-(2-Hydroxypropylsulfamoyl)-4,5,6,7-tetrahydrobenzothiophen-2-yl]cyclopropanecarboxamide] | < 1000
6 | CC(C)CNS(=O)(=O)c1c(NC(=O)C2CC2)sc2c1CC(NS(C)(=O)=O)CC2 (stereo not shown) [Example 24, N-[3-(Isobutylsulfamoyl)-5-(methanesulfonamido)-4,5,6,7-tetrahydrobenzothiophen-2-yl]cyclopropanecarboxamide] | < 1000
7 | CCOC(=O)c1cn([C@H]2CCc3sc(NC(=O)C4CC4)c(C(=O)NCC4CC4)c3C2)cn1 [Example 164, ethyl 1-[(5S)-2-cyclopropaneamido-3-[(cyclopropylmethyl)carbamoyl]-4,5,6,7-tetrahydro-1-benzothiophen-5-yl]-1H-imidazole-4-carboxylate] | < 1000
8 | O=C(NCC1CC1)c1c(NC(=O)C2CC2)sc2c1CC(Nc1nc3ccccc3o1)CC2 (stereo not shown) [Example 183, 5-(1,3-Benzoxazol-2-ylamino)-2-(cyclopropanecarbonylamino)-N-(cyclopropylmethyl)-4,5,6,7-tetrahydrobenzothiophene-3-carboxamide] | < 1000
9 | NS(=O)(=O)c1cccc(NC(=O)C2CCc3sc(NC(=O)C4CC4)c(S(=O)(=O)NCC4CC4)c3C2)c1 (stereo not shown) [Example 33, 2-(Cyclopropanecarbonylamino)-3-(cyclopropylmethylsulfamoyl)-N-(3-sulfamoylphenyl)-4,5,6,7-tetrahydrobenzothiophene-5-carboxamide] | < 1000
10 | Nc1ncccc1C1CCc2sc(NC(=O)C3CC3)c(C(=O)NCC3CC3)c2C1 (stereo not shown) [Example 62, 5-(2-Amino-3-pyridyl)-2-(cyclopropanecarbonylamino)-N-(cyclopropylmethyl)-4,5,6,7-tetrahydrobenzothiophene-3-carboxamide] | < 1000
11 | CC1CCc2sc(NC(=O)C3CC3)c(C(=O)NCC3CC3)c2C1 (stereo not shown) [Example 82, 2-(Cyclopropanecarbonylamino)-N-(cyclopropylmethyl)-5-methyl-4,5,6,7-tetrahydrobenzothiophene-3-carboxamide] | 1000 to 10000
12 | CCCCS(=O)(=O)c1c(NC(=O)C2CC2)sc2c1CCCC2 [Example 22, N-(3-Butylsulfonyl-4,5,6,7-tetrahydrobenzothiophen-2-yl)cyclopropanecarboxamide] | 1000 to 10000
13 | O=C(Nc1sc2c(c1C(=O)N1CC[C@@H](F)C1)CCCC2)C1CC1 [Example 75, N-[3-[(3R)-3-Fluoropyrrolidine-1-carbonyl]-4,5,6,7-tetrahydrobenzothiophen-2-yl]cyclopropanecarboxamide] | 1000 to 10000
